Assay results taken from patent publication US6025365A, “Chelerythrine and radiation combined tumor therapy” (Arch Development Corp., priority 1997, dated 2000).

Legend:
WEHI-231 JM cells [1] = assay: Viability by PI staining and FACS, WEHI-231 JM; format: cell-based, murine; settings: Mus musculus, WEHI231, 24 hours
Experimental: (§1) FIG. 11B. WEHI-231 JM and OE cells are equally sensitive to inhibition of sphingosine kinase and exogenous ceramide. Cells were treated with increasing concentrations of C2-ceramide or DL-threo-dihydrosphingosine--apotent inhibitor of sphingosine kinase. Viability was assayed using PI staining and FACS analysis 24 hours after treatment.
(§2) For viability staining, 2.5-3.5×10^5 cells were treated with varying concentrations of C2-ceramide, irradiation, or both.
(§3) In order to address the question of whether the resistance of the OE subline was due, in part, to alterations in ceramide metabolites or targets, three studies were performed. […] Both cell lines were equally susceptible to the effects of sphingosine kinase inhibition and the resulting […] in ceramide. […] Thus the radioresistance can be attributed to the lack of sphingomyelinase activation and the subsequent decreased ceramide production following irradiation.

WEHI-231 OE cells [2] = assay: Viability by PI staining and FACS, WEHI-231 OE; format: cell-based, murine; settings: Mus musculus, WEHI231, 24 hours
Experimental: as §1, §2, §3

WEHI-231 OE cells [3] = assay: Resistance of selected WEHI-231 OE variants to n-oleoylethanolamine; format: cell-based, murine; settings: 75 μM n-oleoylethanolamine
Experimental: WEHI-231 JM cells (1×10^7) were treated with two successive treatments of 100 μM and 125 μM N-oleoylethanolamine (Matreya), a potent inhibitor of ceramidase (Coroneos et al., 1995; Ambrosini et al., 1994). Cells were grown in media containing n-oleoylethanolamine for 96 hours. Serial dilutions isolated individual resistant cells and were expanded after each selection. Every two weeks cells were re-selected with 125 μM n-oleoethanolamine.

WEHI-231 JM cells [4] = assay: Intracellular ceramide accumulation in WEHI-231 JM cells; format: cell-based, murine; settings: within 24 hours
Experimental: Quantitation of ceramide by diacylglycerol kinase was similar to that described by Dressler and Kolesnick (1990). After irradiation, lipids were extracted and resuspended by bath sonication in 20 μl of 7.5% n-octyl-β-D-glucopyranoside, 5 mM cardiolipin, 1 mM DETAPAC. Seventy μl of a reaction mix was added to give a final concentration of 0.05M imidazole/HCl pH 6.6, 0.05M NaCl, 12.5 mM MgCl2, 1 mM EGTA and DAG kinase at a concentration of 0.7 U/ml. The reaction was started by the addition of 10 μl of [γ-^32 P]ATP (1.0 μCi/tube) in 5 mM ATP and incubated at room temperature for 30 min and stopped by the extraction of lipids with 450 μl of CHCl3 :CH3 OH (1:2) and 20 μl of 1% HClO4. The monophase was mixed and after 10 min., 150 μl CHCl3 and 150 μl of 1% HClO4 were added and the tubes vortexed and centrifuged at 5000 g for 5 min. The lower organic phase was washed twice with 1% HClO4 and then dried in a Speed Vac Apparatus. The phosphorylation products, ceramide-1-phosphate and phosphatidic acid (fom DAG) were resolved on a 10 cm×10 cm LH P-K TLC plate (Whatman). Data was calculated as pmoles of ceramide/10^6 cells by scintillation counting. In Example 6, data (mean +/- SD) represent at least 4 independent studies in which *p<002 compared with unirradiated controls. […]

HL-60 cells = settings: literature reports; cited from earlier work
WEHI-231 cells [5] = assay: Apoptosis / cell death of WEHI-231 (propidium iodide FACS, gel electrophoresis, DAPI); format: cell-based, murine; settings: chelerythrine 10 μM or calphostin C 250 nM
Experimental: Cells undergoing apoptosis also shrink in size.
Cells, 5×10^5, were centrifuged at 1000 rpm and resuspended in approximately 100 μl cell culture media. The cell suspension was then mixed with 100 μl of DAPI (4',6-iamidino-2-phenylindole, Sigma D9542, 1 μg/ml in PBT (PBS+1% Triton X-100)). One drop of this mixture was placed on a microslide with a coverslip. The cells were viewed by fluorescence microscopy using an Olympus BX-40 microscope with a 100 Watt Mercury lamp, a 16 or 40 X Fluorite objective, N.A. 0.75, (Leco #1-UB527) and a UV filter cube (ex 330-385 nm, em 420 nm, wide band pass, Leco #U-M536). Images were photographed using an Optronics cooled low-light video camera (Leco #DEI-470TB) to which was attached a 2X coupler (Leco #HR200-CMT). The image was saved to a digital file at 72 dpi.
DNA degradation was assessed as previously described (Gottschalk et al., 1993; 1994). Briefly, following treatment in 100 mm plates or 24 well plates, cells were collected and lysed in 0.5 ml lysis buffer (0.6% SDS+10 mM EDTA, pH 7.0). NaCl was added to a final concentration of 1M, mixed by inversion, incubated for 12 hours at 4° C. and then spun at 14,000 g for 30 minutes. Samples were treated with chloroform (1:1) and precipitated in ethanol prior to electrophoresis in a 3% agarose gel and visualized with ethidium bromide.

WEHI-231 cells [6] = assay: Ceramide production by DAG kinase assay; format: cell-based, murine; settings: 250 nM calphostin C, 2 hours
Experimental: (§4) FIG. 7A. Inhibition of PKC causes an increase in ceramide production through the activation of a neutral sphingomyelinase and decreases in sphingomyelin levels. Ceramide production was quantitated using the DAG kinase assay for WEHI-231 JM cells and total lipid extraction was used to assay sphingomyelin mass. Following addition of 10 μM chelerythrine, cells were lysed at the appropriate time points as described herein. Each data point represents the average percentage change in ceramide or sphingomyelin generation from baseline derived from at least 8 independent studies for all time points with the exception of those marked with * (n=4). Standard deviations depicted by error bars.
(§5) FIG. 7B. […] Ceramide production and sphingomyelin mass was quantitated identical to that for chelerythrine. Cells were lysed 2 hours following the addition of 250 nM calphostin C. […]
Quantitation of ceramide by diacylglycerol kinase was similar to that described by Dressler and Kolesnick (1990). […] Data was calculated as pmoles of ceramide/10^6 cells by scintillation counting. […]
In order to test whether PKC inhibition alters ceramide production, the DAG kinase assay was used to quantify intracellular ceramide following chelerythrine and calphostin C treatment (Dressler and Kolesnick, 1990; Preiss et al., 1986). […]

WEHI-231 cells [7] = assay: Sphingomyelin mass by lipid extraction / TLC; format: cell-based, murine; settings: 250 nM calphostin C, 2 hours
Experimental: as §4, §5
Cells were prelabeled with [^3 H] palmitate (10 μCi/ml) for 24 hours to isotopic equilibrium in 15 ml glass tubes to minimize changes in cellular ceramide and sphingomyelin due to handling and changing of media (Borchardt et al., 1994). […] Autoradiographs were quantitated using an Epson 1200 c 30 bit scanner and NIH Image software (public domain program developed at the NIH and available from the Internet via FTP from zippy.nimh.nih.gov). […]

protein kinase C (PKC) = settings: cited from earlier work
WEHI-231 cells [8] = settings: Chmura et al., 1996a; cited from earlier work
cyclic-AMP kinase (PKA) = settings: cited from earlier work

## CCCCCCCCCCCCCCC[C@H](O)[C@@H](N)CO (relative stereo) [DL-threo-dihydrosphingosine]
WEHI-231 JM cells [1]
  IC50: 3 µM
WEHI-231 OE cells [2]
  IC50: 3 µM

## CCCCCCCC/C=C\CCCCCCCC(=O)NCCO [N-oleoylethanolamine]
WEHI-231 OE cells [3]
  resistance to apoptosis vs parental line: 3 fold
WEHI-231 JM cells [4]
  intracellular accumulation of ceramide: rose within 24 hours in a dose dependent manner

## CN[C@@H]1C[C@H]2O[C@@](C)([C@@H]1OC)n1c3ccccc3c3c4c(c5c6ccccc6n2c5c31)C(=O)NC4 [staurosporine]
HL-60 cells
  apoptosis in HL-60 cells: both to antagonize (Cotter et al., 1992) and to initiate apoptosis in HL-60 cells

## Calphostin C
WEHI-231 cells [5]; 24 hours
  cell death: greater than 90%
WEHI-231 cells [5]
  DNA laddering and nuclear condensation: DNA laddering and nuclear condensation
WEHI-231 cells [6]
  ceramide production: induced cerarnide production
WEHI-231 cells [7]
  sphingomyelin levels: decreased sphingomyelin levels
Protein kinase C (PKC)
  specificity at blocking PKC vs staurosporin and H7: at least 30 fold
WEHI-231 cells [8]
  interaction with exogenous ceramide analogs in inducing apoptosis: act in synergy with exogenous ceramide analogs to induce apoptosis
cyclic-AMP kinase (PKA); at concentrations used for the inventors' studies
  inhibition of PKA: do not appear to inhibit other kinases
cyclic-AMP kinase (PKA)
  IC50: 50 µM
